# Test results from PMC11126048, “Peptide Toxins from Antarctica: The Nemertean Predator and Scavenger Parborlasia corrugatus (McIntosh, 1876)” (Toxins, 2024).
# Like-named read-outs stand apart in the source and are kept apart here.
# How the values were obtained:
# [1] = Bacterial membrane permeabilization assay (carboxyfluorescein leakage from liposomes); type: biochemical, Escherichia coli; conditions: E. coli polar lipid extract liposomes, 10 µM lipid, Tris 10 mM pH 7.4, 45 min, carboxyfluorescein fluorescence; EC50 fixed at 50% of maximum leakage (Triton X-100); mean of four experiments; read-out: EC50 liposome leakage
# Method: Liposomes were manufactured and permeabilization-assayed as described previously. Briefly, lipid films of Escherichia coli polar lipid extract were deposited on round-bottom flask walls. The lipid films were re-suspended at 55 °C in an aqueous solution of 100 mM of 5(6)-carboxyfluorescein in Tris buffer. The suspensions were subjected to repeated extrusion through a 100 nm polycarbonate membrane in order to reduce multilamellar structures and polydispersity. Un-trapped carboxyfluorescein was removed by gel filtration. Membrane permeability was measured by monitoring carboxyfluorescein efflux from the liposomes to the external low-concentration environment, resulting in a loss of self-quenching and an increased fluorescence signal. The 96-well plates were prepared with a 2-fold serial dilution of the peptides in Tris buffer (10 mM, pH 7.4), and controls without peptides (background) and 0.16% Triton X-100 (maximum leakage). The plates were administered a liposome solution to a final lipid concentration of 10 μM in 200 µL. The effects of each peptide concentration on the liposomes were monitored for 45 min, at which point the initial leakage had largely subsided. The results shown represent the mean from four experiments (one for 3624 Da) with standard deviations and are expressed as the percent of total leakage generated with Triton X-100 and subtraction of the baseline value. […]
# [2] = previous experiments; read-out: EC50 liposome leakage, previous experiments; cited from earlier work
# Method: The ability of the Parborlasia peptides to permeabilize reconstituted E. coli phospholipid membranes was tested in a liposome-based assay. The peptides display the typical steep logarithmic AMP leakage kinetic (Figure 8). […] The 3624 Da peptide was tested in a single experiment series in this assay. The 26-residue long bee venom peptide melittin was used as a reference ...
substance,measurement,setting,value
Melittin,EC50,[1],300 nM
same,EC50,[2],400 nM
